According to BigSolDB 2.1:

[NH3+]O.[NH3+]O.[O-]n1nnnc1-c1nnnn1[O-]
solubility (mole fraction)
Conditions | 298.15 K | 303.15 K | 308.15 K | 313.15 K | 318.15 K | 323.15 K | 328.15 K | 333.15 K
in formic acid | 0.00145 | 0.00161 | 0.0018 | 0.00201 | 0.00225 | 0.00254 | 0.00287 | 0.00325
in water | 7.96e-05 | 0.000155 | 0.00024 | 0.000317 | 0.000403 | 0.000489 | 0.00058 | 0.000665
